PMC9234961 (Journal of Medicinal Chemistry, 2022)
Converted amounts (≈) assume the structure as drawn. “And” between values parts separate entries of the source, which are not always exact repeats. Equal entries are not always repeated. Where two headings read alike, the source gives them in different places. Marks after values point to notes of the source that are not given here.

What was measured:
[1] = biological target: endogenous BCL6 in OCI-Ly1 cells (Homo sapiens, UniProt P41182); assay: cell-based; settings: for degradation of BCL6 (in words): OCI-Ly1 MSD assay; for MSD degrader assay [OCI-Ly1] Dmax: mean maximal degradation of BCL6
[2] = Microsomal clearance assay (MLM); assay type: in vitro ADME; settings: mouse liver microsomes, 1 μM compound; for microsomal CLint at 0.5 h, 1 µM: female, CD1, pH 7.4
Protocol: (§1) 6. Supplementary experimental: in vitro DMPK assays
(§2) 6.1 Microsomal clearance assay
(§3) Microsomal clearance was determined in female CD1 mice, female Sprague–Dawley rats, and mixed gender human liver microsomes obtained from BioIVT (Peterborough, U.K.) following incubation of 1 μM compound at 37 °C in 0.5 mg/mL microsomal protein, 3 mmol/L MgCl2, 1 mmol/L NADPH, 2.5 mmol/L and 10 mmol/L phosphate buffer (pH 7.4) (all purchased from Sigma-Aldrich, Gillingham, U.K). Reactions were started by addition of the cofactors following 10 min preincubation of microsomes with test compound and were terminated at −1, 0, 5, 10, 15, and 30 min with three volumes of ice-cold methanol containing internal standard. Samples were centrifuged at 2800g for 30 min at 4 °C and the supernatants analyzed.
(§4) Control incubations were prepared as above with omission of cofactors. Compound measurements were […]
(§5) separation with a 3 min gradient of 0.1% formic acid in methanol on a Kinetex C18, 50 × 2.1 mm 2.6 μm UPLC column (Phenomenex, Macclesfield, UK). […]

[3] = Microsomal clearance assay (HLM); assay type: in vitro ADME; settings: human liver microsomes, 1 μM compound
Protocol: as §1, §2, §3, §4, §5

[4] = Microsomal clearance assay (RLM); assay type: in vitro ADME; settings: rat liver microsomes, 1 μM compound
Protocol: as §1, §2, §3, §4, §5

[5] = logD7.4 assay (Chrom log D method); assay type: physicochemical; settings: pH 7.4, read-out: Measured logD7.4
Protocol: Calibration, validation and in-house compounds were prepared at 1mM in 10% DMSO / 90% Trizma solution (100mM Trizma in 75/25 methanol/water). 3 µL standard injections (with needle wash) of all calibration, validation and in-house samples were made onto a Phenomenex Luna C8 column (3µm, 100 x 4.6 mm, 100A, Phenomenex, Torrence, USA). Chromatographic separation at 30°C was carried out using […]
2 mL/min. The gradient was held at 0:100 water:organic for 0.8 minutes, then returned to the starting conditions of 95:5 water:organic for 0.2 minutes. The column was re-equilibrated for 5 minutes at the […]

[6] = HPLC solubility assay; assay type: physicochemical; settings: solubility by HPLC in PBS buffer and 1% DMSO at pH 7.4
Protocol: 11 4.2 HPLC solubility assay
10 µL of 10 mM DMSO stock solution was pipetted into a micro centrifuge tube (1.5 mL, Sarstedt part-no.
seconds on vortex mixer (Grant-bio vortex mixer) to create 100 µM solution with 1% DMSO. Following shaking of the suspension on a Bohdan Shaker at 500 rpm for 2 hours at room temperature (20 °C), it was
The concentration of the solubilized compound in solubility sample is measured by HPLC with UV detection using an external standard which was prepared by pipetting 10 µL of the same batch of
The detail of the HPLC method is as following: chromatographic separation at 30°C is carried out over a 5 minute gradient elution method from 90:10 to 10:90 water:methanol (both modified with 0.1% formic acid) at a flow rate of 1.5 mL/min. Calibration curve is prepared by injecting 0.5, 2.5, and 5 µL of compound

[7] = in vitro; assay type: in vitro ADME; settings: pH 7.4, 10 µM, 16 h at 30 °C
[8] = in vitro; assay type: in vitro ADME; settings: fraction unbound in OCI-Ly1 DC50 assay medium
[9] = biological target: T1, human BCL6 BTB domain (Homo sapiens, UniProt P41182); settings: for BCL6 TR-FRET pIC50 mean: mean of replicates
[10] = biological target: T1, human BCL6 BTB domain; assay: biochemical; settings: BCL6 TR-FRET IC50 individual replicates, single replicate values
[11] = NMR solubility assay; assay type: physicochemical; settings: kinetic solubility by NMR in HEPES buffer at pH 8, 4% DMSO; read-out: Aq. Sol.
Protocol: 4. Supplementary experimental: physicochemical assays
0.5 mM TCEP, 10% D2O) was pipetted into the same well and mixed by up-down pipetting 3 times to create […]
It was then separated by centrifugation (1000 rpm
The plate was then sealed and incubated at room temperature for 20 hours, […]
165 µL of the supernatant was transferred to a 3 mm NMR tube (Bruker, Part No. Z112272) using liquid handler SamplePro Tube SJ S (Bruker). The concentration of the solubilized compound in solubility sample is measured by quantitative 1H-NMR using a single external standard (200 µM caffeine (Sigma, C1778) in PBS (pH 7.4) with 1% DMSO-d6).
The detail of the NMR method is as following: NMR data was collected on a Bruker Avance Neo 600 spectrometer equipped with a 5 mm TCI-CryoProbe. The 1H spectrum was referenced to the internal deuterated solvent. The operating frequency for 1H was 600 MHz. All NMR data were acquired at the […]
1H-NMR spectrum was acquired using a Bruker standard 1D lc1pngppsf2 pulse sequence with 32 scans.
The sweep width was 6.2 ppm with O1P set to 8.8 ppm, and the FID contained 16k time-domain data points. Relaxation delay was set to 20 sec. Water signal was suppressed. […]

[12] = in vitro; assay type: in vitro ADME; settings: BALB/c; mouse plasma, rapid equilibrium dialysis; read-out: mouse (BALB\c) PPB (converted)
[13] = In vivo pharmacokinetic study in Balb/C mice; parameters: species or system mouse; settings: female Balb/C mice
[14] = biological target: BCL6 in Karpas 422 cells (Homo sapiens, UniProt P41182); assay: cell-based; settings: read-out: MSD degrader assay [Karpas 422] DC50; Karpas 422 cells
Protocol: 3.2 Mesoscale Discovery (MSD) Degradation Assay
An MSD assay was developed for screening of compounds to determine the degradation of endogenous BCL6 in OCI-Ly1 cells. Briefly, test compounds in DMSO or DMSO alone to a total of 1332.5 nL/well were dispensed to a 96-well Nunc™ Edge 2 plate (ThermoFisher Scientific, 267544) using an Echo® 550 acoustic […]
supplemented with 10% heat-inactivated fetal bovine serum (Sera Plus, PAN Biotech, P30-3702) were […]
incubation at 37 °C + 5% CO2 the plate was centrifuged at 300 x g for 5 minutes. […]
plate washer for all wash and aspiration steps, media was removed and cells were rinsed with PBS, centrifuged as before and PBS removed. Cells were lysed in 50 µL ice-cold lysis buffer at pH 7.4 containing 50 mM Tris-HCl, 150 mM NaCl, 1 % Triton X-100 (v/v), 1 mM PMSF, 1 mM activated sodium vanadate, 1 mM EDTA, phosphatase inhibitors 2 and 3 (1:50 dilution) and protease inhibitor cocktail (1:100 dilution).
20 °C or continuing the assay. A 96-well MSD standard bind plate (MSD, L15XA-3) which was coated overnight with 1 µg/mL anti-human BCL6 goat antibody in PBS (R&D Systems, AF5046) was blocked in 3% BSA in TBS + 0.1% Tween-20 for 1 hour with shaking. Wells were emptied thoroughly before 40 µL/well of lysate was transferred from the cell plate. The MSD plate was incubated at RT for 1 hour with shaking then washed three times with TBS + 0.1 % Tween-20. Antibodies were prepared in TBS + 0.1% Tween-20 + 1% BSA. Anti-human BCL6 rabbit antibody (Cell Signalling Technology, 14895S) was added at 1:100 dilution at 25 µL/well. The plate was incubated and washed as before. MSD Sulfo-tag anti-rabbit detection antibody (MSD, R32AB-1) at 1:1000 dilution at 25 µL/well was added. The plate was incubated and washed as before and MSD Gold read buffer (MSD R92TG) at 1:1 dilution with water at 150 µL/well was added. The plate was read within 10 minutes on the MSD Quickplex reader. The % inhibition at each […]
3.3 Cell proliferation assay
Aldrich) supplemented with 10% FBS (Gibco). […]
transferred onto the cells.
Assay plates containing cells […]

[15] = test system: HT; assay: Cell proliferation assay (14 days), HT; settings: Homo sapiens, HT, 336 h, read-out: HT GI50
Protocol: (§6) Cells were seeded in 96-well culture plates at a density of 2500 cells/well in RPMI-1640 medium (Sigma-
(§7) Aldrich) supplemented with 10% FBS (Gibco). Compounds were initially dispensed into 96-well U-bottom
(§8) plates using an Echo 550 acoustic dispenser (Labcyte Inc.), then diluted in RPMI-1640 medium and
(§9) transferred onto the cells. Cells were treated with 8 compound concentrations in duplicate, ranging from
(§10) with compound for 14 days, with medium changes at days 3, 7 and 10 carried out as follows: fresh 96-well
(§11) cell culture plates were prepared containing 100 µl medium plus compound at the assay concentrations
(§12) (white plates were used on day 10 to optimise luminescence measurement). Assay plates containing cells
(§13) were vortexed to mix and cell density in one control well was counted using a Coulter Z2 cell counter
(§14) (Beckman Coulter). The volume of medium containing 2500 cells in the control well was calculated and this volume of cells was transferred from every well of the assay plates to the corresponding well of the fresh plates containing compound. After 14 days, CellTiter Glo reagent (Promega) was added to the medium in each well of the assay plate at a ratio of 1:2, mixed on a plate shaker, then incubated at room temperature for 10 minutes. Luminescence was measured using an Envision plate reader (Perkin Elmer) and the relative luminescence at each compound concentration, compared to DMSO alone, was calculated. GI50 were determined using a 4-parameter curve fit in Dotmatics (Bishops Stortford, UK).

[16] = test system: OCI-Ly1; assay: Cell proliferation assay (14 days), OCI-Ly1; settings: Homo sapiens, OCI-Ly1, 336 h, read-out: OCI-Ly1 GI50
Protocol: as §6, §7, §8, §9, §10, §11, §12, §13, §14

[17] = test system: OCI-Ly3; assay: Cell proliferation assay (14 days), OCI-Ly3; settings: Homo sapiens, OCI-Ly3, 336 h, read-out: OCI-Ly3 GI50
Protocol: as §6, §7, §8, §9, §10, §11, §12, §13, §14

[18] = test system: SU-DHL-4; assay: Cell proliferation assay (14 days), SU-DHL-4; settings: Homo sapiens, SU-DHL-4, 336 h, read-out: SU-DHL-4 GI50
Protocol: as §6, §7, §8, §9, §10, §11, §12, §13, §14

[19] = test system: Karpas 422; assay: Cell proliferation assay (14 days), Karpas 422; settings: Homo sapiens, KARPAS-422, 336 h, read-out: Karpas 422 GI50
Protocol: as §6, §7, §8, §9, §10, §11, §12, §13, §14

[20] = OCI-Ly1, read-out: MSD degrader assay [OCI-LY1] Dmax individual replicates, single replicate values
[21] = OCI-Ly1, read-out: MSD degrader assay [OCI-Ly1] Dmax, mean maximal degradation of BCL6, OCI-Ly1 cells, 2 h
[22] = read-out: MSD degrader assay [OCI-LY1] DC50 individual replicates, single replicate values
[23] = read-out: MSD degrader assay [OCI-Ly1] DC50, geometric mean, OCI-Ly1 cells, 2 h incubation
[24] = reversed-phase HPLC on Phenomenex Luna C8 column
[25] = read-out: BCL6 TR-FRET IC50, geometric mean, BCOR-AF633 peptide, 2 h incubation

Row | SMILES | Dmax [1, 20] [%] | Dmax [1, 21] [%] | degradation of BCL6 (in words) [1] | MSD degrader assay [OCI-Ly1] Dmax ([1]; OCI-Ly1 cells, 2 h) [%] | DC50 [1, 22] | DC50 [1, 23] [nM] | microsomal CLint at 0.5 h, 1 µM [2] [µL/min/mg] | microsomal CLint at 0.5 h, 1 µM ([3]; both sexes, pH 7.4) [µL/min/mg] | microsomal CLint at 0.5 h, 1 µM ([4]; female, Sprague-Dawley, pH 7.4) [µL/min/mg] | chromatographic logD [5, 24] | PAMPA (pH 7.4) [7] [×10–6 cm s–1] | BCL6 TR-FRET pIC50 mean [9] | IC50 [9, 25] [nM] | IC50 [10] | other results
1 | Cn1c(=O)c2c(c3cc(Nc4nc(N5CCC(F)(F)[C@@H](CO)C5)ncc4Cl)ccc31)N[C@@H](C1CC1)C(F)(F)CO2 [9a, (S)-10-((5-Chloro-2-((R)-4,4-difluoro-3-(hydroxymethyl)piperidin-1-yl)pyrimidin-4-yl)amino)-2-cyclopropyl-3,3-difluoro-7-methyl-1,2,3,4-tetrahydro-[1,4]oxazepino[2,3-c]quinolin-6(7H)-one] | 76.7 | 82.8 | fully degraded the protein | 83 | 2.5 nM and 3 nM | 2.7 | 142 | 14 | 9 | 3.2 | 21 | 8.8118 | 1.5 | 1.3 nM and 2.2 nM (2×) and 0.9 nM and 4 nM | MSD degrader assay [OCI-LY1] pDC50 mean ([1]; mean of replicates): 8.5622; DC50 ([1]; read-out: Calculated free DC50 [OCI-Ly1], DC50 corrected with fu,media): 0.24 nM; MSD degrader assay [OCI-LY1] Dmax individual replicates ([1]; single replicate values): 89.0%; Aq. Sol. [6]: 13^f μM and 13 ^e μM; fraction unbound ([8]; bovine, read-out: fu,media): 0.088
2 | C[C@@H]1CN(c2ncc(Cl)c(Nc3ccc4c(c3)n(CCC(C)(C)O)c(=O)n4C)n2)C[C@H](C)C1(F)F [2 CCT369260, 5-((5-Chloro-2-((3R,5S)-4,4-difluoro-3,5-dimethylpiperidin-1-yl)pyrimidin-4-yl)amino)-3-(3-hydroxy-3-methylbutyl)-1-methyl-1,3-dihydro-2H-benzo[d]imidazol-2-one] | – | 99.3 | – | – | – | – | – | 11 | 10 | 4.3 | 33 | – | – | – | CLint (MLM) [2]: 78 μL/min/mg protein; solubility kinetic at 20 h [11]: 11 µM (≈ 5.6 µg/mL); fu,media [8]: 0.022; fraction unbound [12]: 0.0004; CL as % Qh [13]: 22 % Qh; CL ([13]; 1 mg/kg i.v.): 1.19 L/h/kg; Vd ([13]; mouse, in vivo, 1 mg/kg, read-out: Vss): 2.1 L/kg; half-life at 6 h ([13]; mouse, in vivo, po, 5 mg/kg): 1.4 h; Cmax ([13]; mouse, in vivo, 1 mg/kg i.v. and 5 mg/kg p.o.): 1580 nM; F ([13]; oral bioavailability, 5 mg/kg p.o. vs 1 mg/kg i.v.): 54%; CLu ([13]; unbound clearance): 2803.9 L/h/kg
3 | C[C@@H]1C[C@H](O)CN(c2ncc(Cl)c(Nc3ccc4c(c3)c3c(c(=O)n4C)OCC(F)(F)[C@H](C4CC4)N3)n2)C1 [12b CCT373567, (S)-10-((5-Chloro-2-((3S,5R)-3-hydroxy-5-methylpiperidin-1-yl)pyrimidin-4-yl)amino)-2-cyclopropyl-3,3-difluoro-7-methyl-1,2,3,4-tetrahydro-[1,4]oxazepino[2,3-c]quinolin-6(7H)-one] | < 30 | < 30 | no degradation was seen | > 30 | > 2000 nM | > 2000 | 90 | – | – | – | 16 | 8.5554 | 2.8 | 3.9 nM and 2.4 nM (2×) and 2.6 nM | degradation of BCL6 (in words) ([1]; listed as 12b): nondegrading isomer; DC50 [14]: > 2000 nM; microsomal CLint at 1 μM ([3]; both sexes, pH 7.4): 3 µL/min/mg; CLint (HLM) [3]: low clearance; microsomal CLint at 1 μM ([4]; female, Sprague-Dawley, pH 7.4): 3 µL/min/mg; CLint (RLM) [4]: low clearance; chromatographic logD [5]: 2.9; IC50 ([9]; read-out: BCL6 TR-FRET IC50 individual replicates, single replicate values): 2.8 nM; GI50 [15]: 362 nM; GI50 [16]: 83 nM; GI50 [17]: 2140 nM; GI50 [18]: 820 nM; GI50 [19]: 38 nM
